These results are taken from patent publication US9518052B2, “Pyrazolopyridines and pyrazolopyrimidines” (Pfizer Inc., priority 2014, dated 2016).

Where a name gives a salt, the structure may show the parent alone.

Common to all, as to type: biochemical
Holding throughout (details): Caliper assay at 1 mM ATP

One experiment deals with TYK2 (Homo sapiens (Human), UniProt P29597). The experiment can be described thus: JAK Caliper Enzyme Assay at 1 mM ATP (TYK2).
Another experiment deals with JAK3 (Homo sapiens (Human), UniProt P52333). Kind of experiment: JAK Caliper Enzyme Assay at 1 mM ATP (JAK3).
For the next experiment, the target named is JAK1 (Homo sapiens (Human), UniProt P23458). Kind of experiment: JAK Caliper Enzyme Assay at 1 mM ATP (JAK1).
In another experiment the target is JAK2 (Homo sapiens (Human), UniProt O60674). Kind of experiment: JAK Caliper Enzyme Assay at 1 mM ATP (JAK2).
JAK2, sequence (O60674 whole entry, species assumed): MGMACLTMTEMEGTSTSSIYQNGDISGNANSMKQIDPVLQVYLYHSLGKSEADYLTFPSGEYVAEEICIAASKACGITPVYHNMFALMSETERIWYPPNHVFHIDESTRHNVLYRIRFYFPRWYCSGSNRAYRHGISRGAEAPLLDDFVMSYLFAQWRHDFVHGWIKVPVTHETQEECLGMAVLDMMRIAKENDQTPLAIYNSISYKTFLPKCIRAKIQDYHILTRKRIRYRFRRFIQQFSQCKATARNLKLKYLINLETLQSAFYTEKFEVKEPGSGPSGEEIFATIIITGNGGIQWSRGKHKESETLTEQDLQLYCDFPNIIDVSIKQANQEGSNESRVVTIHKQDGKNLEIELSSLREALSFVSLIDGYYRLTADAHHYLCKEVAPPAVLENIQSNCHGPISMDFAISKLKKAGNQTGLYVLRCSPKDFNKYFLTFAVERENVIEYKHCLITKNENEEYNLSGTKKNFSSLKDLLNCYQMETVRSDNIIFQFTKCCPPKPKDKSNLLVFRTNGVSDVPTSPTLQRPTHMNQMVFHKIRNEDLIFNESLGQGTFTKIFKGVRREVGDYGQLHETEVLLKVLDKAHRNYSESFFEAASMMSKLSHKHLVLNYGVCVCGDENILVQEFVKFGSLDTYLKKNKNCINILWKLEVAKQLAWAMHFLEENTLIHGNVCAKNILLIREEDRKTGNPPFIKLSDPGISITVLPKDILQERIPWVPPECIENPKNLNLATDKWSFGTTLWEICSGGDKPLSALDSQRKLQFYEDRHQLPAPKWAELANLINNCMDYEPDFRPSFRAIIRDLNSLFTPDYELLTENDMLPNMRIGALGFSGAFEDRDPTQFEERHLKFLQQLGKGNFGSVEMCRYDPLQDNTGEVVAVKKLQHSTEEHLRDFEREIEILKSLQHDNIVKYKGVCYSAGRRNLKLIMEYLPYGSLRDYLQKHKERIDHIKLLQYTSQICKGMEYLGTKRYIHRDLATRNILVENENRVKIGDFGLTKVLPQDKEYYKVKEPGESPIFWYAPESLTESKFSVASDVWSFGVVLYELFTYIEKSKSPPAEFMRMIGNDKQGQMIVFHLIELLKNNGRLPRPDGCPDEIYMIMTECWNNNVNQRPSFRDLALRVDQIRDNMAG

JAK3, sequence (P52333 whole entry, species assumed): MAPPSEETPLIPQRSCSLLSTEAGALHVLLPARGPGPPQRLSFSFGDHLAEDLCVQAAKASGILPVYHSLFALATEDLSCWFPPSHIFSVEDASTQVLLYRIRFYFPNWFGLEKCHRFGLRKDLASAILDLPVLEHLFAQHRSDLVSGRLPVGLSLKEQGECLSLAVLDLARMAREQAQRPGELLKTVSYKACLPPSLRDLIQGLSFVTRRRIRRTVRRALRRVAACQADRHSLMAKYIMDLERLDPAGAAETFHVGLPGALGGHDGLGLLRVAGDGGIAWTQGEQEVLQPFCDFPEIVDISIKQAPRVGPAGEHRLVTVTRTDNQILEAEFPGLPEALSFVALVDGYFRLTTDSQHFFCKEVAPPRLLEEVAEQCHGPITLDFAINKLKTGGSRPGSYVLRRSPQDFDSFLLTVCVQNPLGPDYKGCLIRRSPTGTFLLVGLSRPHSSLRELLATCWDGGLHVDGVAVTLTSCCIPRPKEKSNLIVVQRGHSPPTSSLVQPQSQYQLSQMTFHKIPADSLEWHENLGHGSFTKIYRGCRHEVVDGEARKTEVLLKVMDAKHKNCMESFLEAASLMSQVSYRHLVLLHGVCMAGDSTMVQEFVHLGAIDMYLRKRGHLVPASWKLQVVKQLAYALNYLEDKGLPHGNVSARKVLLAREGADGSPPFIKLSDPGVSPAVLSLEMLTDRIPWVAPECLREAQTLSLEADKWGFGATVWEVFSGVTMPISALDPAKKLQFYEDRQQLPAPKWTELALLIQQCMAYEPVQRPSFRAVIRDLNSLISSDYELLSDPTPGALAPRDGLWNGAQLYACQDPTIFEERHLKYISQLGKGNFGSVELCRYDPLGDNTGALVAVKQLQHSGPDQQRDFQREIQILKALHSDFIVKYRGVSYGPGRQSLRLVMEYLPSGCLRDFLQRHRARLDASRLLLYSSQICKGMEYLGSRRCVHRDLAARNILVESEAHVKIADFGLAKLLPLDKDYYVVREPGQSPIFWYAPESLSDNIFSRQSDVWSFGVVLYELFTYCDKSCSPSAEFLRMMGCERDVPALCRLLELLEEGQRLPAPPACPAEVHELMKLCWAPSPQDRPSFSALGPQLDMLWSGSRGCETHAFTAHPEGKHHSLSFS
TYK2, sequence (P29597 whole entry, species assumed): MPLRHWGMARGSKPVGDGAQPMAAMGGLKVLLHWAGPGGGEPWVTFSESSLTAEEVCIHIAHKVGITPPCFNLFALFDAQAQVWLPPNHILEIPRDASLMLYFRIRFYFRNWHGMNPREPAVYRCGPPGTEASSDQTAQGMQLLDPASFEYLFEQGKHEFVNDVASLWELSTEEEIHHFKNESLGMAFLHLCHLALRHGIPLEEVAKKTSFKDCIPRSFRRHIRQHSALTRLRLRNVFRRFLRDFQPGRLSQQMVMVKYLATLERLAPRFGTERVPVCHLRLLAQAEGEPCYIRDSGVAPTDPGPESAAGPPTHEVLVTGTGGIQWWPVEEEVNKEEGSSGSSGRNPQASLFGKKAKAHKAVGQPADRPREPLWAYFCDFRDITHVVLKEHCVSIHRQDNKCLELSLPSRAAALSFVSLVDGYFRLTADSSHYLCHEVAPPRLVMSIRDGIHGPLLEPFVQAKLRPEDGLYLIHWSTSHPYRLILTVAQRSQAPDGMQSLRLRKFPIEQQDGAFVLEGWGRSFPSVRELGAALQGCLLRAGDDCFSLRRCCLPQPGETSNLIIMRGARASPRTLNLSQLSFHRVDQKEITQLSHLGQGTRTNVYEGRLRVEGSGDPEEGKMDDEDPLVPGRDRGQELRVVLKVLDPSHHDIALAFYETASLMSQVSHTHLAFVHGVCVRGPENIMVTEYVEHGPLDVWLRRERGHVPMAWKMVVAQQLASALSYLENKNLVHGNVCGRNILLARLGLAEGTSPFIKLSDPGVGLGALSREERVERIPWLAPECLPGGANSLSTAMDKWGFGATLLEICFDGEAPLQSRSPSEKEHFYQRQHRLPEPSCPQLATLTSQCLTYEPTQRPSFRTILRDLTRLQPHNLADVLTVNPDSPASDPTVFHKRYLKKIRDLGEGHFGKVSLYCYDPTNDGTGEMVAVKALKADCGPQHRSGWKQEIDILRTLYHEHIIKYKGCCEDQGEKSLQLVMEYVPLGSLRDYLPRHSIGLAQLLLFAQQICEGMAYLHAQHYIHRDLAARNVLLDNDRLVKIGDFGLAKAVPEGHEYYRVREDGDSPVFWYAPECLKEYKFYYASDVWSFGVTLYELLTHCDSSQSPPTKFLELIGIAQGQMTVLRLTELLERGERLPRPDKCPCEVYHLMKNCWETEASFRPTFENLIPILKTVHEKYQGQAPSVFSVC
JAK1, sequence (P23458 whole entry, species assumed): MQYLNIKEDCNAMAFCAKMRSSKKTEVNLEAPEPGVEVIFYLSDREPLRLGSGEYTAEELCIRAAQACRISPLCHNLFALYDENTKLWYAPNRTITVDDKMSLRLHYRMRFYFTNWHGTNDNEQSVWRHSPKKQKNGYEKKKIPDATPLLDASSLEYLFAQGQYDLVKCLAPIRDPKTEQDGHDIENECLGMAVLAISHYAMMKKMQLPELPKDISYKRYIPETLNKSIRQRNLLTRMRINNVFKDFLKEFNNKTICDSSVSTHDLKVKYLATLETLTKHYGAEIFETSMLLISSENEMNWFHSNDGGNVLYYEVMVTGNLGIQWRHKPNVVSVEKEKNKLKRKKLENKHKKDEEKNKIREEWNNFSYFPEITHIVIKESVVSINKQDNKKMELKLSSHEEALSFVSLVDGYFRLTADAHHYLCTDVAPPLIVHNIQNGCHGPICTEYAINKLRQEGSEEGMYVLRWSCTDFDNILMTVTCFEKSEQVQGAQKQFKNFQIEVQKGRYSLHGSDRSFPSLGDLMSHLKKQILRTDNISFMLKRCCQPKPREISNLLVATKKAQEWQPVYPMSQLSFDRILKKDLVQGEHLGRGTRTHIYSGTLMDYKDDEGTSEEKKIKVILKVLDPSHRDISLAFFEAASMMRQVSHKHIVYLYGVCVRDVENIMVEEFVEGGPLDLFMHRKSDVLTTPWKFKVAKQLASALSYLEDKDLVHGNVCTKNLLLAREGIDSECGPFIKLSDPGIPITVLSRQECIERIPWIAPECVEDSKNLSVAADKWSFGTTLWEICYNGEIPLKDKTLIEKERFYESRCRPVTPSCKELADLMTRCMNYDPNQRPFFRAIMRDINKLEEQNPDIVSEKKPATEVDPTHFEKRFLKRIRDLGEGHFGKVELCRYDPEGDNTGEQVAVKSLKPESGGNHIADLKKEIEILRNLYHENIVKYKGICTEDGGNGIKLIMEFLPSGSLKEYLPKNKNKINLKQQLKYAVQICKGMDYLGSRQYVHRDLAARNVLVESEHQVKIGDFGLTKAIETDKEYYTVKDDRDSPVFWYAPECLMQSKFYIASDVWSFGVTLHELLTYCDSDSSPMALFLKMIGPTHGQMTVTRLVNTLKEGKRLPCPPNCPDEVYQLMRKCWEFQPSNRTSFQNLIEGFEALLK

In general, IC50 refers to the concentration that inhibits the measured activity by half. Consider `CNC(=O)c1n[nH]c2nc(-c3cc(F)c(O)cc3CC(F)(F)F)nc(NCc3ccccc3N(C)S(N)(=O)=O)c12` [Example 109, 6-(5-Fluoro-4-hydroxy-2-(2,2,2-trifluoroethyl)phenyl)-N-methyl-4-((2-(methyl(sulfamoyl)amino)benzyl)amino)-1H-pyrazolo[3,4-d]pyrimidine-3-carboxamide], for which the IC50 was 674 nM on TYK2, 107 nM on JAK3, 6.4 nM at JAK1 and 31.2 nM at JAK2.
The like results for `CNC(=O)c1n[nH]c2nc(-c3cc(F)c(O)cc3CC(F)(F)F)nc(NCc3ccccc3N(C)S(=O)(=O)NC)c12` [Example 110, 6-(5-Fluoro-4-hydroxy-2-(2,2,2-trifluoroethyl)phenyl)-N-methyl-4-((2-(methyl(N-methylsulfamoyl)amino)benzyl)amino)-1H-pyrazolo[3,4-d]pyrimidine-3-carboxamide] were, in that order, 35 nM, 120 nM, 5.4 nM and 26.9 nM.
In the same order, the values of `CCc1cc(O)ccc1-c1cc2[nH]ncc2c(N2CC(C)(O)C2)n1` [Example 115, 1-[6-(2-ethyl-4-hydroxyphenyl)-1H-pyrazolo[4,3-c]pyridin-4-yl]-3-methylazetidin-3-ol formate] are 229 nM, 16.8 nM, 4.3 nM and 10.1 nM.
For the compound `CCc1cc(O)ccc1-c1cc2[nH]ncc2c(N2CCc3ccc(S(=O)(=O)NCCN4CCCC4)cc3C2)n1` [Example 116, 2-[6-(2-ethyl-4-hydroxyphenyl)-1H-pyrazolo[4,3-c]pyridin-4-yl]-N-[2-(pyrrolidin-1-yl)ethyl]-1,2,3,4-tetrahydroisoquinoline-7-sulfonamide formate], the IC50 against TYK2 was 163 nM; on JAK3, 23.3 nM; on JAK1 it was 3.8 nM; against JAK2 it was 10.1 nM.
The like results for `CCc1cc(O)ccc1-c1cc2[nH]ncc2c(N2CCc3c(cccc3NS(C)(=O)=O)C2)n1` [Example 123, N-{2-[6-(2-ethyl-4-hydroxyphenyl)-1H-pyrazolo[4,3-c]pyridin-4-yl]-1,2,3,4-tetrahydroisoquinolin-5-yl}methanesulfonamide formate] were, in that order, 82.1 nM, 9.5 nM, 3.3 nM and 4.5 nM.
Regarding `CCc1cc(O)c(F)cc1-c1cc2[nH]ncc2c(NCc2ccccc2N(C)S(C)(=O)=O)n1` [Example 131, N-[2-({[6-(2-Ethyl-5-fluoro-4-hydroxyphenyl)-1H-pyrazolo[4,3-c]pyridin-4-yl]amino}methyl)phenyl]-N-methylmethanesulfonamide], the IC50 on TYK2 is 4.7 nM; against JAK3, 10.2 nM; against JAK1 it was below 0.5 nM; at JAK2, 2.1 nM.
Turning to `CCc1cc(O)c(F)cc1-c1cc2[nH]ncc2c(NCc2cc(C)ccc2N(C)S(C)(=O)=O)n1` [Example 132, N-[2-({[6-(2-ethyl-5-fluoro-4-hydroxyphenyl)-1H-pyrazolo[4,3-c]pyridin-4-yl]amino}methyl)-4-methylphenyl]-N-methylmethanesulfonamide hydrochloride], the IC50 came out at 1290 nM at TYK2, 18.4 nM against JAK3, 19 nM at JAK1 and 31.4 nM against JAK2.
As for `CCc1cc(O)c(F)cc1-c1cc2[nH]ncc2c(NCc2cc(Cl)ccc2N(C)S(C)(=O)=O)n1` [Example 133, N-[4-chloro-2-({[6-(2-ethyl-5-fluoro-4-hydroxyphenyl)-1H-pyrazolo[4,3-c]pyridin-4-yl]amino}methyl)phenyl]-N-methylmethanesulfonamide hydrochloride], the IC50 at TYK2 came to 249 nM; against JAK3, 30.5 nM; on JAK1, 1.2 nM; on JAK2, 5.9 nM.
With `CCc1cc(O)c(F)cc1-c1cc2[nH]ncc2c(NCc2c(F)cccc2N(C)S(C)(=O)=O)n1` [Example 134, N-[2-({[6-(2-ethyl-5-fluoro-4-hydroxyphenyl)-1H-pyrazolo[4,3-c]pyridin-4-yl]amino}methyl)-3-fluorophenyl]-N-methylmethanesulfonamide hydrochloride], the IC50 on TYK2 was 20.3 nM; at JAK3, 7.6 nM; at JAK1, below 0.5 nM; at JAK2 it was 1.7 nM.
In the same order, the values of `CCc1cc(O)c(F)cc1-c1cc2[nH]ncc2c(NCc2ccccc2N(CC)S(=O)(=O)CC)n1` [Example 136, N-ethyl-N-[2-({[6-(2-ethyl-5-fluoro-4-hydroxyphenyl)-1H-pyrazolo[4,3-c]pyridin-4-yl]amino}methyl)phenyl]ethanesulfonamide hydrochloride] are 8.7 nM, 22.4 nM, 0.8 nM and 4.3 nM.
The like results for `CCCN(c1ccccc1CNc1nc(-c2cc(F)c(O)cc2CC)cc2[nH]ncc12)S(C)(=O)=O` [Example 137, N-[2-({[6-(2-Ethyl-5-fluoro-4-hydroxyphenyl)-1H-pyrazolo[4,3-c]pyridin-4-yl]amino}methyl)phenyl]-N-propylmethanesulfonamide] were, in that order, 45.4 nM, 3.3 nM, below 0.1 nM and 0.3 nM.
In the same order, the values of `CCc1cc(O)c(F)cc1-c1cc2[nH]ncc2c(N(C)Cc2cc(C)ccc2N(CC)S(C)(=O)=O)n1` [Example 142, N-ethyl-N-[2-({[6-(2-ethyl-5-fluoro-4-hydroxyphenyl)-1H-pyrazolo[4,3-c]pyridin-4-yl](methyl)-amino}methyl)-4-methylphenyl]methanesulfonamide] are 885 nM, 27.9 nM, 3.4 nM and 7.9 nM.
Take `CCc1cc(O)c(F)cc1-c1cc2[nH]ncc2c(N(CC)Cc2cc(C)ccc2N(C)S(C)(=O)=O)n1` [Example 143, N-[2-({ethyl[6-(2-ethyl-5-fluoro-4-hydroxyphenyl)-1H-pyrazolo[4,3-c]pyridin-4-yl]amino}methyl)-4-methylphenyl]-N-methylmethanesulfonamide]: the IC50 was 4660 nM against TYK2, 122 nM against JAK3, 40.4 nM against JAK1 and 43.6 nM against JAK2.
For `CCCN(Cc1cc(C)ccc1N(C)S(C)(=O)=O)c1nc(-c2cc(F)c(O)cc2CC)cc2[nH]ncc12` [Example 144, N-[2-({[6-(2-ethyl-5-fluoro-4-hydroxyphenyl)-1H-pyrazolo[4,3-c]pyridin-4-yl](propyl)amino}-methyl)-4-methylphenyl]-N-methylmethanesulfonamide], the IC50 came out at 8730 nM at TYK2, 186 nM at JAK3, 55.3 nM at JAK1 and 70.7 nM on JAK2.
With `CCc1cc(O)c(F)cc1-c1cc2[nH]ncc2c(N(C)Cc2ccccc2N(CC)S(C)(=O)=O)n1` [Example 145, N-Ethyl-N-[2-({[6-(2-ethyl-5-fluoro-4-hydroxyphenyl)-1H-pyrazolo[4,3-c]pyridin-4-yl](methyl)amino}methyl)phenyl]methanesulfonamide hydrochloride], the IC50 came to 15.8 nM on TYK2, 16.2 nM against JAK3, 1 nM on JAK1 and 4.5 nM against JAK2.
The like results for `CCc1cc(O)c(F)cc1-c1cc2[nH]ncc2c(N(C)Cc2ccccc2N(C)S(C)(=O)=O)n1` [Example 146, N-[2-({[6-(2-Ethyl-5-fluoro-4-hydroxyphenyl)-1H-pyrazolo[4,3-c]pyridin-4-yl](methyl)amino}methyl)phenyl]-N-methylmethanesulfonamide hydrochloride] were, in that order, 49.9 nM, 19.1 nM, 0.9 nM and 5.1 nM.
`CCc1cc(O)c(F)cc1-c1cc2[nH]ncc2c(NCc2ccccc2N(CCO)S(C)(=O)=O)n1` [Example 147, N-[2-({[6-(2-Ethyl-5-fluoro-4-hydroxyphenyl)-1H-pyrazolo[4,3-c]pyridin-4-yl]amino}methyl)phenyl]-N-(2-hydroxyethyl)methanesulfonamide]: the 50% inhibitory concentration (IC50) stood at 49.4 nM on TYK2, 18.5 nM against JAK3, 1.1 nM against JAK1 and 4.7 nM at JAK2.
For `CN(c1ccccc1CNc1nc(-c2cc(F)c(O)cc2CC(F)(F)F)cc2[nH]ncc12)S(C)(=O)=O` [Example 148, N-{2-[({6-[5-Fluoro-4-hydroxy-2-(2,2,2-trifluoroethyl)phenyl]-1H-pyrazolo[4,3-c]pyridin-4-yl}amino)methyl]phenyl}-N-methylmethanesulfonamide], the 50% inhibitory concentration (IC50) against TYK2 worked out at 146 nM; at JAK3 it was 22.8 nM; against JAK1, 1.8 nM; at JAK2 it was 6.3 nM.
In the same order, the values of `CN(c1ccccc1CNCc1nc(-c2cc(F)c(O)cc2CC(F)(F)F)cc2[nH]ncc12)S(C)(=O)=O` [Example 149] are 764 nM, 22.7 nM, 2.7 nM and 14.5 nM.
In the same order, the values of `Cc1ccc(N(C)S(C)(=O)=O)c(CNc2nc(-c3cc(F)c(O)cc3CC(F)(F)F)cc3[nH]ncc23)c1` [Example 150, N-{2-[({6-[5-Fluoro-4-hydroxy-2-(2,2,2-trifluoroethyl)phenyl]-1H-pyrazolo[4,3-c]pyridin-4-yl}amino)methyl]-4-methylphenyl}-N-methylmethanesulfonamide] are 4160 nM, 77.8 nM, 21.6 nM and 48.9 nM.
For `CC(C)CNc1nc(-c2cc(F)c(O)cc2CC(F)(F)F)nc2[nH]ncc12` [Example 153, 2-fluoro-4-{4-[(2-methyl-propyl)amino]-1H-pyrazolo[3,4-d]pyrimidin-6-yl}-5-(2,2,2-trifluoroethyl)phenol], the half-inhibitory concentration (IC50) against TYK2 came out at 7460 nM; at JAK3 it was 207 nM; against JAK1, 74 nM; on JAK2, 241 nM.
